The values below come from patent publication US11014934B2, “Antiseptic drug” (AO “TATKHIMFARMPREPARATY”, priority 2017, dated 2021).

Like-named read-outs stand apart in the source and are kept apart here. Where only a bound is given, the exact number is not on record here.

What all share (assay): MIC, serial dilutions in Müller-Hinton broth
Format in all cases: cell-based

In one experiment the test system is Acinetobacter spp. 1. The essentials: (§1)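 Broth microdilution in Müller-Hinton broth following MUK 4.2.1890-04, with two-fold compound dilutions at final 1-128 ug/ml. The inoculum was set to 0.5 McFarland and diluted to 10^7 CFU/ml before addition, then plates were incubated at 37° C. for 24 hours. MIC was the lowest concentration without visible growth, taking the highest of three independent runs.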

For another experiment, the system named is E. faecalis 23. The method in brief:
as §1

A further experiment deals with E. faecalis 3051. The essentials:
as §1

Another experiment has as its system E. faecium 3028. The method in brief: as §1
For a further experiment, the system named is E. faecium 30. The essentials: as §1
A further experiment has as its system Enterobacter spp. 16. The method in brief:
as §1

Another experiment relates to M. luteus. The method in brief: as §1
The test system of a further experiment is Moraxella sp. 723. The essentials:
as §1

A further experiment deals with Ps. aeruginosa 2869. The essentials: as §1
The next experiment relates to Pseudomonas spp.6. Particulars: inoculum 10^7 CFU/ml. The essentials: as §1
The test system of another experiment is S. aureus 1130 MRSA. The method in brief: as §1
The subject of another experiment is S. aureus 1163 MRSA. The essentials:
as §1

The next experiment deals with S. aureus 1167 MRSA. The method in brief: as §1
Another experiment relates to S. aureus 1173 MRSA. The method in brief: as §1
A further experiment deals with S. aureus 19. The essentials: as §1
A further experiment has as its system S. aureus 21. The method in brief:
as §1

Another experiment has as its system S. aureus 967 MRSA. The essentials: as §1
The next experiment concerns S. aureus 981 MRSA. The method in brief:
as §1

The test system of a further experiment is S. aureus 983 MRSA. The essentials: as §1
Another experiment relates to S. aureus ATCC 209p. The method in brief:
as §1

Take `CCCCCCCCCCCC[N+](C)(C)Cc1cnc(C[N+](C)(C)CCCCCCCCCCCC)c2c1COC(CC)O2` (stereo not drawn) [Compound I, 5,8-(Bis(methylene (N, N-dimethyl-N-dodecylammonium))-2-ethyl-4H-[1,3]dioxino [4,5-c]pyridiniumdichloride]: the MIC with Acinetobacter spp. 1 (Acinetobacter spp. 1, inoculum 10^7 CFU/ml, read-out: MIC) stood at 16 µg/mL; with E. faecalis 23 (Enterococcus faecalis, E. faecalis 23, inoculum 10^7 CFU/ml, read-out: MIC), 0.03 µg/mL; with E. faecalis 3051 (Enterococcus faecalis, E. faecalis 3051, inoculum 10^7 CFU/ml, read-out: MIC), 4 µg/mL; in the experiment on E. faecium 3028 (Enterococcus faecium, E. faecium 3028, inoculum 10^7 CFU/ml, read-out: MIC) it was 1 µg/mL; in the experiment with E. faecium 30 (Enterococcus faecium, E. faecium 30, inoculum 10^7 CFU/ml, read-out: MIC), 0.03 µg/mL; in the experiment with Enterobacter spp. 16 (Enterobacter spp. 16, inoculum 10^7 CFU/ml, read-out: MIC), 8 µg/mL. Moreover, the MIC with M. luteus (Micrococcus luteus, M. luteus, inoculum 10^7 CFU/ml, read-out: MIC) came to 2 µg/mL; in the experiment on Moraxella sp. 723 (Moraxella sp. 723, inoculum 10^7 CFU/ml, read-out: MIC) it was 4 µg/mL; in the experiment on Ps. aeruginosa 2869 (Pseudomonas aeruginosa, Ps. aeruginosa 2869, inoculum 10^7 CFU/ml, read-out: MIC), 32 µg/mL; in the experiment on Pseudomonas spp.6 (read-out: MIC), 16 µg/mL; with S. aureus 1130 MRSA (Staphylococcus aureus, S. aureus 1130 MRSA, inoculum 10^7 CFU/ml, read-out: MIC) it was 2 µg/mL; in the experiment on S. aureus 1163 MRSA (Staphylococcus aureus, S. aureus 1163 MRSA, inoculum 10^7 CFU/ml, read-out: MIC), 4 µg/mL. The MIC was 4 µg/mL with S. aureus 1167 MRSA (Staphylococcus aureus, S. aureus 1167 MRSA, inoculum 10^7 CFU/ml, read-out: MIC); 2 µg/mL in the experiment on S. aureus 1173 MRSA (Staphylococcus aureus, S. aureus 1173 MRSA, inoculum 10^7 CFU/ml, read-out: MIC); 2 µg/mL in the experiment on S. aureus 19 (Staphylococcus aureus, S. aureus 19, inoculum 10^7 CFU/ml, read-out: MIC); 1 µg/mL in the experiment with S. aureus 21 (Staphylococcus aureus, S. aureus 21, inoculum 10^7 CFU/ml, read-out: MIC); 16 µg/mL with S. aureus 967 MRSA (Staphylococcus aureus, S. aureus 967 MRSA, inoculum 10^7 CFU/ml, read-out: MIC); 4 µg/mL in the experiment with S. aureus 981 MRSA (Staphylococcus aureus, S. aureus 981 MRSA, inoculum 10^7 CFU/ml, read-out: MIC). Also, the minimal inhibitory concentration (MIC) in the experiment on S. aureus 983 MRSA (Staphylococcus aureus, S. aureus 983 MRSA, inoculum 10^7 CFU/ml, read-out: MIC) was 8 µg/mL; with S. aureus ATCC 209p (Staphylococcus aureus, ATCC209P, S. aureus ATCC 209p, inoculum 10^7 CFU/ml, read-out: MIC), 2 µg/mL.
As for `CCCCCCCCCCCCCC(=O)NCCC[N+](C)(C)Cc1ccccc1.O.[Cl-]` [Miramistin, benzyldimethyl [3-(myristoylamino)propyl]-ammonium chloride monohydrate], the MIC against Acinetobacter spp. 1 (Acinetobacter, SPP.1) was 64 µg/mL; against E. faecalis 23 (Enterococcus faecalis, 23), 4 µg/mL; in the experiment on E. faecalis 3051 (Enterococcus faecalis, 3051), 2 µg/mL; against E. faecium 3028 (Enterococcus faecium, 3028), 16 µg/mL; against E. faecium 30 (Enterococcus faecium, 30), below 0.5 µg/mL; in the experiment with Enterobacter spp. 16 (Enterobacter, SPP.16) it was 64 µg/mL. Further, the MIC with M. luteus (Micrococcus luteus) was 2 µg/mL; against Moraxella sp. 723 (Moraxella, SP.723), 32 µg/mL; in the experiment on Ps. aeruginosa 2869 (Pseudomonas aeruginosa, 2869), 64 µg/mL; in the experiment on Pseudomonas spp.6 (read-out: MIC) it was above 64 µg/mL; in the experiment on S. aureus 1130 MRSA (Staphylococcus aureus, MRSA), 4 µg/mL; in the experiment on S. aureus 1163 MRSA (Staphylococcus aureus, MRSA), 4 µg/mL. Besides, the minimum inhibitory concentration (MIC) worked out at 4 µg/mL against S. aureus 1167 MRSA (Staphylococcus aureus, MRSA); 16 µg/mL against S. aureus 1173 MRSA (Staphylococcus aureus, MRSA); 16 µg/mL with S. aureus 19 (Staphylococcus aureus, 19); 16 µg/mL with S. aureus 21 (Staphylococcus aureus, 21); 16 µg/mL in the experiment with S. aureus 967 MRSA (Staphylococcus aureus, MRSA); 4 µg/mL with S. aureus 981 MRSA (Staphylococcus aureus, MRSA). Moreover, the MIC came to 4 µg/mL in the experiment on S. aureus 983 MRSA (Staphylococcus aureus, MRSA) and 8 µg/mL against S. aureus ATCC 209p (Staphylococcus aureus, ATCC209P).
In the case of “alkyldimethyl(phenylmethyl) ammonium chloride [Benzalconium chloride]”, the MIC against Acinetobacter spp. 1 (Acinetobacter spp. 1, inoculum 10^7 CFU/ml) was above 64 µg/mL; against E. faecalis 23 (E. faecalis 23, inoculum 10^7 CFU/ml), below 0.5 µg/mL; with E. faecalis 3051 (E. faecalis 3051, inoculum 10^7 CFU/ml), 2 µg/mL; against E. faecium 3028 (E. faecium 3028, inoculum 10^7 CFU/ml), 4 µg/mL; in the experiment with E. faecium 30 (E. faecium 30, inoculum 10^7 CFU/ml), below 0.5 µg/mL; against Enterobacter spp. 16 (Enterobacter spp. 16, inoculum 10^7 CFU/ml) it was 4 µg/mL. In addition, the MIC in the experiment on M. luteus (M. luteus, inoculum 10^7 CFU/ml) is 1 µg/mL; in the experiment with Moraxella sp. 723 (Moraxella sp. 723, inoculum 10^7 CFU/ml), 4 µg/mL; in the experiment with Ps. aeruginosa 2869 (Ps. aeruginosa 2869, inoculum 10^7 CFU/ml), 64 µg/mL; with Pseudomonas spp.6, 16 µg/mL; in the experiment with S. aureus 1130 MRSA (S. aureus 1130 MRSA, inoculum 10^7 CFU/ml), 2 µg/mL; with S. aureus 1163 MRSA (S. aureus 1163 MRSA, inoculum 10^7 CFU/ml), 4 µg/mL. For the same compound, the MIC in the experiment with S. aureus 1167 MRSA (S. aureus 1167 MRSA, inoculum 10^7 CFU/ml) is 2 µg/mL; in the experiment on S. aureus 1173 MRSA (S. aureus 1173 MRSA, inoculum 10^7 CFU/ml), 8 µg/mL; in the experiment with S. aureus 19 (S. aureus 19, inoculum 10^7 CFU/ml), below 0.5 µg/mL; against S. aureus 21 (S. aureus 21, inoculum 10^7 CFU/ml) it was below 0.5 µg/mL; with S. aureus 967 MRSA (S. aureus 967 MRSA, inoculum 10^7 CFU/ml), 8 µg/mL; in the experiment on S. aureus 981 MRSA (S. aureus 981 MRSA, inoculum 10^7 CFU/ml), 4 µg/mL. Also, the MIC against S. aureus 983 MRSA (S. aureus 983 MRSA, inoculum 10^7 CFU/ml) came out at 4 µg/mL; against S. aureus ATCC 209p (S. aureus ATCC 209p, inoculum 10^7 CFU/ml), 4 µg/mL.

By MIC is commonly meant the lowest concentration that inhibits growth of the organism.
